Laboratory results published in BindingDB's records for doi:10.1016/S1074-5521(02)00281-8 (Massachusetts Institute of Technology, 2002).
pKi: −log10 of the molar value. Starred links: 1 amine or outer side, 2 acyl side, 3 side chain; linkers in the order of their positions; H or OH if unused. Positions of bridges follow the written chain, without caps; N, C: chain ends. Non-standard residues stand in square brackets, D forms with d. Residues, ends and D or L forms follow the SMILES beside them. Chains are numbered I, II in the order given. Actinocin(9to1) = Cc1c2oc3c(C)ccc(C(=O)[*:1])c3nc-2c(C(=O)[*:2])c(N)c1=O; NMeV = CN[C@H](C(=O)O)C(C)C; Sar = CNCC(=O)O

Target: T1, Dolichyl-diphosphooligosaccharide--protein glycosyltransferase subunit 1 (Saccharomyces cerevisiae, UniProt P41543)
T1 sequence (P41543 whole entry): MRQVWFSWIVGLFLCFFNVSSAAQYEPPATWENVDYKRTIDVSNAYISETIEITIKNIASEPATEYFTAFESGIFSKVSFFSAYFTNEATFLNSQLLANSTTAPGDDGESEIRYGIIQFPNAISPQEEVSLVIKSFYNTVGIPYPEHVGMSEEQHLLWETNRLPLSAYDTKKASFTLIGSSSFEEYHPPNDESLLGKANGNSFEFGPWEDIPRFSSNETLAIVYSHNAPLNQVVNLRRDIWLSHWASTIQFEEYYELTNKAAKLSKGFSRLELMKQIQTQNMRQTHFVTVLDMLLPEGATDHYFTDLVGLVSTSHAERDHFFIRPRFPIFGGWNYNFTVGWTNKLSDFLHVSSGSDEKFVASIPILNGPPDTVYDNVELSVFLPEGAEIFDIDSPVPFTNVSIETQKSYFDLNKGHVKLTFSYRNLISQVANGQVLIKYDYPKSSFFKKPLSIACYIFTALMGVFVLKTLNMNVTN
Assay: Competition Assay
Details: pH 7.5; 0 °C
Text: Competition assay using S. cerevisiae oligosaccharyl transferase (OT)with disaccharide donor Dol-P-P-(GlcNAc)2 and the tripeptide substrate Bz-Asn-Leu-Thr-NHMe.

SMILES	pKi
COc1ccc(-n2cnnc2SCC(=O)Nc2cc(C)on2)cc1 [2-[[4-(4-methoxyphenyl)-1,2,4-triazol-3-yl]sulfanyl]-N-(5-methyl-1,2-oxazol-3-yl)acetamide]	4.00
COc1ccc(OC)c(Nc2nc(NCCCN(C)C)nc(N)c2[N+](=O)[O-])c1 [3-[[4-amino-6-(2,5-dimethoxyanilino)-5-nitro-pyrimidin-2-yl]amino]propyl-dimethyl-amine]	5.96
CC[N+](C)(CC)CCCCOc1ccc2c(c1)C(=O)c1cc(OCCCC[N+](C)(CC)CC)ccc1-2 [4-[7-[4-[diethyl(methyl)ammonio]butoxy]-9-keto-fluoren-2-yl]oxybutyl-diethyl-methyl-ammonium;iodide]	5.35
COc1ccc(NS(=O)(=O)c2ccc(NC(=O)C(CCSC)NC(N)=O)cc2)cc1 (stereo not drawn) [2-(aminocarbonylamino)-N-[4-[(4-methoxyphenyl)sulfamoyl]phenyl]-4-methylsulfanyl-butanamide]	4.47
COC(=O)c1ccc(O)c2nc3c(C=O)c(O)cc(O)c3nc12 [6-formyl-4,7-dihydroxy-9-keto-5H-phenazine-1-carboxylic acid methyl ester]	7.21
CC(=O)Nc1ccc(NC(=O)c2ccc(Cl)nc2)cc1 [Glycopeptide, 2]	5.60
O=C(Nc1ccc(C2=NCCN2)cc1)c1ccc(C(=O)Nc2ccc(C3=NCCN3)cc2)c(Cl)c1	5.40
Cc1c2oc3c(C)ccc(C(=O)N[C@@H]4C(=O)N[C@H](C(C)C)C(=O)N5CCC[C@H]5C(=O)N(C)CC(=O)N(C)[C@@H](C(C)C)C(=O)O[C@@H]4C)c3nc-2c(C(=O)N[C@@H]2C(=O)N[C@H](C(C)C)C(=O)N3CCC[C@H]3C(=O)N(C)CC(=O)N(C)[C@@H](C(C)C)C(=O)O[C@@H]2C)c(N)c1=O [2-amino-N,N''-bis[(3R,6S,7R,10S,16S)-3,10-diisopropyl-2,5,9,12,15-pentaketo-7,11,14-trimethyl-8-oxa-1,4,11,14-tetrazabicyclo[14.3.0]nonadecan-6-yl]-3-keto-4,6-dimethyl-phenoxazine-1,9-dicarboxamide] (I: T[dV]P[Sar][NMeV] / II: T[dV]P[Sar][NMeV]; ester I:1-I:C, II:1-II:C; linker I:N-II:N via Actinocin(9to1))	7.39
